{"source": "PubChem BioAssay AID190", "about": "(DTP/NCI, 2004)", "tested_on": "AKR/Lw mice, AKR lymphoma ip, median survival T/C", "test": "NCI In Vivo Anticancer Drug Screen. Data for tumor model Lymphoma AKR (Transplanted) (intraperitoneal) in AKR/Lw mice", "settings": "endpoint: median survival time, higher = longer survival", "method": "The antitumor activity of compounds was measured in mice bearing transplantable tumors. Survival or tumor size were measured and the results are expressed as the measurement made in the treated group (T) divided by the measurement made in the vehicle treated control group (C). The tumor model used in this assay is Lymphoma AKR (Transplanted) (intraperitoneal) in AKR/Lw mice", "key": {"[1]": {"settings": "dose: 100.0 mg/kg/injection, schedule: Q01DX001 (ip), vehicle: Klucel (hydroxypropylcellulose) (HPC)"}, "[2]": {"settings": "dose: 200.0 mg/kg/injection, schedule: Q01DX001 (ip), vehicle: Klucel (hydroxypropylcellulose) (HPC)"}, "[3]": {"settings": "dose: 400.0 mg/kg/injection, schedule: Q01DX001 (ip), vehicle: Klucel (hydroxypropylcellulose) (HPC)"}}, "note": "Values joined by “and” are separate entries in the source; they are usually repeats but may differ in a detail not shown here. Identical values can stand only once. Inconclusive results and toxic doses are left out."}
{"smiles": "C1CN1c1nc(N2CC2)nc(N2CC2)n1", "values": [{"measurement": "T/C", "setting": "dose: 0.01 mg/kg/injection, schedule: Q04DX003 (ip), vehicle: saline", "result": "102 % of control"}, {"measurement": "T/C", "setting": "dose: 0.02 mg/kg/injection, schedule: Q01DX009 (ip), vehicle: saline", "result": "115 % of control"}, {"measurement": "T/C", "setting": "dose: 0.02 mg/kg/injection, schedule: Q04DX003 (ip), vehicle: saline", "result": "111 % of control"}, {"measurement": "T/C", "setting": "dose: 0.03 mg/kg/injection, schedule: Q01DX009 (ip), vehicle: saline", "result": "109 % of control"}, {"measurement": "T/C", "setting": "dose: 0.03 mg/kg/injection, schedule: Q04DX003 (ip), vehicle: saline", "result": "86 % of control and 102 % of control"}, {"measurement": "T/C", "setting": "dose: 0.05 mg/kg/injection, schedule: Q01DX009 (ip), vehicle: saline", "result": "115 % of control"}, {"measurement": "T/C", "setting": "dose: 0.05 mg/kg/injection, schedule: Q04DX003 (ip), vehicle: saline", "result": "100 % of control"}, {"measurement": "T/C", "setting": "dose: 0.06 mg/kg/injection, schedule: Q01DX009 (ip), vehicle: saline", "result": "101 % of control and 109 % of control"}, {"measurement": "T/C", "setting": "dose: 0.06 mg/kg/injection, schedule: Q04DX003 (ip), vehicle: saline", "result": "93 % of control and 97 % of control and 107 % of control"}, {"measurement": "T/C", "setting": "dose: 0.1 mg/kg/injection, schedule: Q04DX003 (ip), vehicle: saline", "result": "113 % of control"}, {"measurement": "T/C", "setting": "dose: 0.12 mg/kg/injection, schedule: Q01DX001 (ip), vehicle: saline", "result": "106 % of control"}, {"measurement": "T/C", "setting": "dose: 0.2 mg/kg/injection, schedule: Q04DX003 (ip), vehicle: saline", "result": "115 % of control and 122 % of control"}, {"measurement": "T/C", "setting": "dose: 0.25 mg/kg/injection, schedule: Q01DX001 (ip), vehicle: saline", "result": "106 % of control and 111 % of control"}, {"measurement": "T/C", "setting": "dose: 0.3 mg/kg/injection, schedule: Q04DX003 (ip), vehicle: saline", "result": "121 % of control"}, {"measurement": "T/C", "setting": "dose: 0.35 mg/kg/injection, schedule: Q04DX003 (ip), vehicle: saline", "result": "120 % of control"}, {"measurement": "T/C", "setting": "dose: 0.37 mg/kg/injection, schedule: Q01DX001 (ip), vehicle: saline", "result": "105 % of control"}, {"measurement": "T/C", "setting": "dose: 0.6 mg/kg/injection, schedule: Q01DX009 (ip), vehicle: saline", "result": "116 % of control"}, {"measurement": "T/C", "setting": "dose: 0.75 mg/kg/injection, schedule: Q01DX001 (ip), vehicle: saline", "result": "105 % of control and 115 % of control"}, {"measurement": "T/C", "setting": "dose: 0.8 mg/kg/injection, schedule: Q04DX003 (ip), vehicle: saline", "result": "188 % of control"}, {"measurement": "T/C", "setting": "dose: 1.2 mg/kg/injection, schedule: Q01DX009 (ip), vehicle: saline", "result": "93 % of control"}, {"measurement": "T/C", "setting": "dose: 1.5 mg/kg/injection, schedule: Q01DX001 (ip), vehicle: saline", "result": "123 % of control"}, {"measurement": "T/C", "setting": "dose: 2.5 mg/kg/injection, schedule: Q01DX009 (ip), vehicle: saline", "result": "93 % of control"}, {"measurement": "T/C", "setting": "dose: 15.0 micrograms/kg/injection, schedule: Q01DX009 (ip), vehicle: saline", "result": "113 % of control"}, {"measurement": "T/C", "setting": "dose: 25.0 micrograms/kg/injection, schedule: Q01DX009 (ip), vehicle: saline", "result": "102 % of control"}, {"measurement": "T/C", "setting": "dose: 30.0 micrograms/kg/injection, schedule: Q01DX009 (ip), vehicle: saline", "result": "115 % of control"}, {"measurement": "T/C", "setting": "dose: 50.0 micrograms/kg/injection, schedule: Q01DX009 (ip), vehicle: saline", "result": "111 % of control"}, {"measurement": "T/C", "setting": "dose: 100.0 micrograms/kg/injection, schedule: Q01DX009 (ip), vehicle: saline", "result": "116 % of control"}, {"measurement": "T/C", "setting": "dose: 120.0 micrograms/kg/injection, schedule: Q01DX009 (ip), vehicle: saline", "result": "107 % of control"}, {"measurement": "T/C", "setting": "dose: 250.0 micrograms/kg/injection, schedule: Q01DX009 (ip), vehicle: saline", "result": "105 % of control"}]}
{"smiles": "COc1ccccc1N1C(N)=NC(N)=NC1(C)C", "values": [{"measurement": "T/C", "setting": "dose: 11.0 mg/kg/injection, schedule: Q01DX001 (ip), vehicle: saline", "result": "109 % of control"}, {"measurement": "T/C", "setting": "dose: 11.0 mg/kg/injection, schedule: Q04DX003 (ip), vehicle: saline", "result": "91 % of control"}, {"measurement": "T/C", "setting": "dose: 16.0 mg/kg/injection, schedule: Q01DX001 (ip), vehicle: saline", "result": "88 % of control"}, {"measurement": "T/C", "setting": "dose: 25.0 mg/kg/injection, schedule: Q01DX001 (ip), vehicle: saline", "result": "113 % of control"}, {"measurement": "T/C", "setting": "dose: 25.0 mg/kg/injection, schedule: Q04DX003 (ip), vehicle: saline", "result": "102 % of control"}, {"measurement": "T/C", "setting": "dose: 37.5 mg/kg/injection, schedule: Q01DX001 (ip), vehicle: saline", "result": "102 % of control"}, {"measurement": "T/C", "setting": "dose: 37.5 mg/kg/injection, schedule: Q04DX003 (ip), vehicle: saline", "result": "88 % of control"}, {"measurement": "T/C", "setting": "dose: 100.0 mg/kg/injection, schedule: Q01DX001 (ip), vehicle: saline", "result": "90 % of control"}]}
{"smiles": "CC(=O)NC1CC2c3ccccc3C1([N+](=O)[O-])c1ccccc12", "note": "(centres undefined)", "values": [{"measurement": "T/C", "setting": "[1]", "result": "104 % of control"}, {"measurement": "T/C", "setting": "[2]", "result": "97 % of control"}, {"measurement": "T/C", "setting": "[3]", "result": "102 % of control"}]}
{"smiles": "COc1cc([C@@H]2c3cc4c(cc3[C@H](O)[C@H]3COC(=O)[C@@H]23)OCO4)cc(OC)c1OC", "values": [{"measurement": "T/C", "setting": "dose: 6.0 mg/kg/injection, schedule: Q01DX009 (ip), vehicle: Klucel (hydroxypropylcellulose) (HPC)", "result": "110 % of control"}, {"measurement": "T/C", "setting": "dose: 12.0 mg/kg/injection, schedule: Q01DX009 (ip), vehicle: Klucel (hydroxypropylcellulose) (HPC)", "result": "120 % of control"}]}
{"smiles": "CC(C)n1c(=S)[nH]c2ccccc2c1=O", "values": [{"measurement": "T/C", "setting": "[1]", "result": "90 % of control"}, {"measurement": "T/C", "setting": "[2]", "result": "118 % of control"}, {"measurement": "T/C", "setting": "[3]", "result": "104 % of control"}]}
{"smiles": "O=c1cc(-c2ccccc2)nc(Nc2nc3ccc([N+](=O)[O-])cc3[nH]2)[nH]1", "values": [{"measurement": "T/C", "setting": "[1]", "result": "96 % of control"}, {"measurement": "T/C", "setting": "[2]", "result": "110 % of control"}, {"measurement": "T/C", "setting": "[3]", "result": "96 % of control"}]}
{"smiles": "CCN(CC)C(N)=S", "values": [{"measurement": "T/C", "setting": "[1]", "result": "105 % of control"}, {"measurement": "T/C", "setting": "dose: 100.0 mg/kg/injection, schedule: Q04DX003 (ip), vehicle: Klucel (hydroxypropylcellulose) (HPC)", "result": "100 % of control"}, {"measurement": "T/C", "setting": "[2]", "result": "105 % of control"}, {"measurement": "T/C", "setting": "dose: 200.0 mg/kg/injection, schedule: Q04DX003 (ip), vehicle: Klucel (hydroxypropylcellulose) (HPC)", "result": "103 % of control"}, {"measurement": "T/C", "setting": "[3]", "result": "110 % of control"}, {"measurement": "T/C", "setting": "dose: 400.0 mg/kg/injection, schedule: Q04DX003 (ip), vehicle: Klucel (hydroxypropylcellulose) (HPC)", "result": "107 % of control"}]}
